The subject of this experiment is HuH7 cells. The experiment can be described thus: MTT antiproliferative (growth inhibition) assay on HuH7 cells. Format: cell-based, human. The settings on record: Homo sapiens, Huh-7, MTT, 72 h incubation, mean and SD of 3 or more independent determinations (Tables 1-8), read-out: IC 50. The source says: MTT was purchased from DUCHEFA Biochemie ([…]). Sunitinib, and sodium dodecyl sulfate, bovine serum albuminwere obtained from Sigma Aldrich (Singapore). Sorafenib was purchase from Ontario Chem. Fetal bovine serum (FBS) was obtained from Invitrogen. Human hepatocellular carcinoma cells (HuH-7 and Hep G2), and human diploid fibroblast strain (IMR 90). HuH7 was obtained as gifts from Dr Ho Han Kiat, Department of Pharmacy, NUS. IMR90 and Hep G2 were purchased from American Type Culture Collection (ATCC). HuH-7 cells were cultured in DMEM (Dulbecco's Modified Eagle Medium, high glucose) with 10% v/v fetal bovine serum (FBS), 100 mg/L penicillin G and 100 mg/L streptomycin. IMR 90 cell were cultured in EMEM (Eagle's Minimum Essential Medium), with 10% v/v FBS and 100 mg/L penicillin G and 100 mg/L streptomycin. The cells were sub-cultured when HuH7 or Hep G2 reached a density of 70-80×10^5 cell/T75 flask, and IMR 90 reached 20×10^5 cell/T75 flask. Cells were used within 2-10 passages for viability experiments.
The anti-proliferative activity of the test compounds were determined by the MTT assay. An aliquot (200 μL, 3×10^4 cells/mL for HuH7, 3.75×10^4 cells/mL for Hep G2, and 2×10^4 cells/mL for IMR 90) of medium was added to each well of the microtitre plate. […] The existing medium was removed from each well and replaced by fresh medium (200 μL) containing a known concentration of test compound. The final concentration of DMSO in each well was maintained at 0.5% v/v. (1% v/v was also utilized if the compounds were not soluble) The test compounds were incubated with the cells for another 72 h at 37 deg C., 5% CO2. The medium was then removed from the well and replaced with FBS free medium (200 μL) and MTT (50 μL of 2 mg/mL solution in phosphate buffer saline, pH 7.4). The phosphate buffer saline comprises 10 mM of potassium phosphate and 137 mM sodium chloride. After incubation (3 h) at 37 deg C., 5% CO2, the supernatant was removed and a solution of 200 μL DMSO and 25 μL Sorenson buffer (0.1 M glycine, 0.1 M sodium chloride, adjusted to pH 10.5 with 0.1 M sodium hydroxide) was added to dissolve the formazan crystals in each well. Vehicle control were cells grown in 1% v/v DMSO/Medium for 72 h, 37 deg C., 5% CO2 while blank controls were wells that contained only 200 μL DMSO and 25 μL Sorenson buffer. Absorbances were measured at 570 nm on a microplate reader (Tecan, Infinite 200). The viability of cells at a given concentration of test compound was determined from the expression:
[formula] where abs_compound=absorbance of wells containing cells and test compound, abs_vehicle (Not the same as above. Change to abs_vehicle)=absorbance of vehicle control and abs_blank=absorbance of blank control.
Each concentration of test compound was evaluated at least 3 times on separate occasions, and two different stock solution were used. The IC50 value (concentration that inhibited 50% of cell growth) was determined from the sigmoidal curve obtained by plotting percentage viability versus logarithmic concentration of test compound using GraphPad Prism 5 (San Diego, USA).

`O=C1Nc2ccc(F)c(F)c2C1=Cc1ccccc1C(F)(F)F` (mixture of isomers) [Compound 6-5, (E/Z)-4,5-Difluoro-3-(2-trifluoromethyl-benzylidene)-1,3-dihydro-indol-2-one]: the IC50 was over 30 µM.
Regarding `CS(=O)(=O)c1cccc(C=C2C(=O)Nc3ccc(F)c(F)c32)c1` (mixture of isomers) [Compound 6-9, (E/Z)-4,5-Difluoro-3-(3-methanesulfonylbenzylidene)-1,3-dihydro-indol-2-one], the IC50 is 13.9 ± 2.03 µM.
Then `O=C1Nc2cc(Cl)ccc2/C1=C\c1ccccc1` [Compound 1-1, (E)-3-Benzylidene-6-chloro-1,3-dihydro-indol-2-one], with 17.5 ± 3.54 µM.
`O=C1Nc2cc(Cl)ccc2/C1=C\c1cccc(F)c1` [Compound 1-3, (E)-6-Chloro-3-(3-fluoro-benzylidene)-1,3-dihydro-indol-2-one]: the IC50 was determined as 10 ± 0.87 µM.
Take `O=C1Nc2cc(Cl)ccc2/C1=C\c1ccc(F)cc1` [Compound 1-4, (E)-6-Chloro-3-(4-fluoro-benzylidene)-1,3-dihydro-indol-2-one]: the IC50 turned out to be 12.9 ± 0.95 µM.
As for `Cc1cccc(/C=C2/C(=O)Nc3cc(Cl)ccc32)c1` [Compound 1-5, (E)-6-Chloro-3-(3-methyl-benzylidene)-1,3-dihydro-indol-2-one], the figure is 11 ± 0.28 µM.
Consider `COc1ccccc1/C=C1/C(=O)Nc2cc(Cl)ccc21` [Compound 1-6, (E)-6-Chloro-3-(2-methoxy-benzylidene)-1,3-dihydro-indol-2-one], for which the IC50 was over 30 µM.
As for `COc1cccc(/C=C2/C(=O)Nc3cc(Cl)ccc32)c1` [Compound 1-7, (E)-6-Chloro-3-(3-methoxy-benzylidene)-1,3-dihydro-indol-2-one], the figure is 12.2 ± 0.64 µM; as for `COc1ccc(/C=C2/C(=O)Nc3cc(Cl)ccc32)cc1` [Compound 1-8, (E)-6-Chloro-3-(4-methoxy-benzylidene)-1,3-dihydro-indol-2-one], over 30 µM; as for `O=C1Nc2cc(Cl)ccc2/C1=C\c1ccccc1C(F)(F)F` [Compound 1-9, (E)-6-Chloro-3-(2-trifluoromethyl-benzylidene)-1,3-dihydro-indol-2-one], 24.1 ± 5.29 µM.
Then `O=C1Nc2cc(Cl)ccc2/C1=C\c1ccc(C(F)(F)F)cc1` [Compound 1-11, (E)-6-Chloro-3-(4-trifluoromethyl-benzylidene)-1,3-dihydro-indol-2-one], with 11 ± 1.78 µM; and `O=C1Nc2cc(Cl)ccc2C1=Cc1ccc(F)c(F)c1` [Compound 1-12, (E)-6-Chloro-3-(3,4-difluoro-benzylidene) 1,3-dihydro-indolin-2-one], with 16.7 ± 3.4 µM; and `O=C1Nc2cc(Cl)ccc2/C1=C\c1cccc(OC(F)(F)F)c1` [Compound 1-14, (E)-6-Chloro-3-(3-trifluoromethoxyl-benzylidene)-1,3-dihydro-indol-2-one], with 5.06 ± 0.74 µM.
Regarding `O=C1Nc2cc(Cl)ccc2C1=Cc1ccc(OC(F)(F)F)cc1` [Compound 1-15, (E)-6-Chloro-3-(4-trifluoromethoxyl-benzylidene)-1,3-dihydro-indol-20-one], the IC50 stood at 10.1 ± 1.73 µM.
As to `CS(=O)(=O)c1cccc(/C=C2/C(=O)Nc3cc(Cl)ccc32)c1` [Compound 1-16, (E)-6-Chloro-3-(3-methanesulfonyl-benzylidene)-1,3-dihydro-indol-2-one], the IC50 amounted to 10.8 ± 3.72 µM.
Then `NS(=O)(=O)c1cccc(/C=C2/C(=O)Nc3cc(Cl)ccc32)c1` [Compound 1-17, (E) 3-(6-Chloro-2-oxo-1,2-dihydro-indol-3-ylidenemethyl)-benzene-sulfonamide], with 3.41 ± 0.38 µM; and `N#Cc1cccc(/C=C2/C(=O)Nc3cc(Cl)ccc32)c1` [Compound 1-19, (E) 3-(6-Chloro-2-oxo-1,2-dihydro-indol-3-ylidenemethyl)-benzonitrile], with 7.36 ± 0.3 µM.
As for `CN(C)S(=O)(=O)c1cccc(/C=C2/C(=O)Nc3cc(Cl)ccc32)c1` [Compound 1-20, (E)-3-(6-Chloro-2-oxo-1,2-dihydro-indol-3-ylidenemethyl)-N,N-dimethyl-benzenesulfonamide], the IC50 stood at 4.87 ± 0.36 µM.
Then `O=C1Nc2ccc(Cl)cc2/C1=C\c1ccccc1` [Compound 2-1, (E)-3-Benzylidene-5-chloro-1,3-dihydro-indol-2-one], with 21.3 ± 2.22 µM; and `O=C1Nc2ccc(Cl)cc2/C1=C\c1ccccc1F` [Compound 2-2, (E)-5-Chloro-3-(2-fluoro-benzylidene)-1,3-dihydro-indol-2-one], with over 30 µM; and `O=C1Nc2ccc(Cl)cc2/C1=C\c1cccc(F)c1` [Compound 2-3, (E)-5-Chloro-3-(3-fluoro-benzylidene)-1,3-dihydro-indol-2-one], with 15.1 ± 2.91 µM.
Then `O=C1Nc2ccc(Cl)cc2/C1=C\c1ccc(F)cc1` [Compound 2-4, (E)-5-Chloro-3-(4-fluoro-benzylidene)-1,3-dihydro-indol-2-one], with 12.7 ± 2.82 µM; and `COc1cccc(C=C2C(=O)Nc3ccc(Cl)cc32)c1` [Compound 2-5, (E)-5-Chloro-3-(3-methoxybenzylidene)-dihydro-indol-2-one], with over 30 µM; and `O=C1Nc2ccc(Cl)cc2/C1=C\c1ccccc1C(F)(F)F` [Compound 2-6, (E)-5-Chloro-3-(2-trifluoromethylbenzylidene)-1,3-dihydro-indol-2-one], with over 30 µM.
On to `O=C1Nc2ccc(Cl)cc2/C1=C\c1ccc(C(F)(F)F)cc1` [Compound 2-8, (E)-5-Chloro-3-(4-trifluoromethylbenzylidene)-1,3-dihydro-indol-2-one], for which the IC50 was 7.92 ± 1.45 µM.
As for `O=C1Nc2ccc(Cl)cc2/C1=C\c1ccc(F)c(F)c1` [Compound 2-9, (E)-5-Chloro-3-(3,4-difluoro-benzylidene)-1,3-dihydro-indol-2-one], the figure is 11.4 ± 1.45 µM; as for `O=C1Nc2ccc(Cl)cc2/C1=C\c1cccc(OC(F)(F)F)c1` [Compound 2-10, (E)-5-Chloro-3-(3-trifluoromethoxyl-benzylidene)-1,3-dihydro-indol-2-one], 3.83 ± 0.25 µM; as for `CS(=O)(=O)c1cccc(/C=C2/C(=O)Nc3ccc(Cl)cc32)c1` [Compound 2-11, (E)-5-Chloro-3-(3-methanesulfonyl-benzylidene)-1,3-dihydro-indol-2-one], 6.53 ± 0.51 µM.
As for `NS(=O)(=O)c1cccc(C=C2C(=O)Nc3ccc(Cl)cc32)c1` [Compound 2-12, E/Z 3-(5-Chloro-2-oxo-1,2-dihydro-indol-3-ylidenemethyl)-benzenesulfonamide], the figure is 9.66 ± 1.59 µM; as for `N#Cc1cccc(/C=C2/C(=O)Nc3ccc(Cl)cc32)c1` [Compound 2-13, (E) 3-(5-Chloro-2-oxo-1,2-dihydro-indol-3-ylidenemethyl)-benzonitrile], 10.4 ± 1.99 µM.
Regarding `CNS(=O)(=O)c1cccc(/C=C2/C(=O)Nc3ccc(Cl)cc32)c1` [Compound 2-14, (E)-3-(5-Chloro-2-oxo-1,2-dihydro-indol-3-ylidenemethyl)-N-methyl-benzenesulphonamide], the IC50 stood at 3.13 ± 0.07 µM.
With `O=C1Nc2cc(F)ccc2/C1=C\c1cccc(F)c1` [Compound 3-3, (E)-6-Fluoro-3-(3-fluoro-benzylidene)-1,3-dihydro-indol-2-one], the IC50 worked out at 2.41 ± 1.07 µM.
`O=C1Nc2cc(F)ccc2/C1=C\c1ccccc1C(F)(F)F` [Compound 3-5, (E)-6-Fluoro-3-(2-trifluoromethyl-benzylidene)-1,3-dihydro-indol-2-one]: the IC50 is over 30 µM.
Consider `O=C1Nc2cc(F)ccc2/C1=C\c1cccc(C(F)(F)F)c1` [Compound 3-6, (E)-6-Fluoro-3-(3-trifluoromethyl-benzylidene)-1,3-dihydro-indol-2-one, reference compound], for which the IC50 turned out to be 1.41 ± 0.13 µM.
On to `O=C1Nc2cc(F)ccc2/C1=C\c1ccc(C(F)(F)F)cc1` [Compound 3-7, (E)-6-Fluoro-3-(4-trifluoromethyl-benzylidene)-1,3-dihydro-indol-2-one], for which the IC50 worked out at 8.42 ± 0.27 µM.

The record behind these values is patent US8877946B2, “Benzylidene-indolinone compounds and their medical use” (National University of Singapore, priority 2011, dated 2014).
